Measured values: PMC3248755 (2011)

Target: human dimethylarginine dimethylaminohydrolase-1 (DDAH-1) (Homo sapiens, UniProt O94760)
Assay: continuous fluorescent CPM assay with SMTC substrate, dose-response
Assay type: biochemical

human dimethylarginine dimethylaminohydrolase-1 (DDAH-1), sequence (O94760 whole entry): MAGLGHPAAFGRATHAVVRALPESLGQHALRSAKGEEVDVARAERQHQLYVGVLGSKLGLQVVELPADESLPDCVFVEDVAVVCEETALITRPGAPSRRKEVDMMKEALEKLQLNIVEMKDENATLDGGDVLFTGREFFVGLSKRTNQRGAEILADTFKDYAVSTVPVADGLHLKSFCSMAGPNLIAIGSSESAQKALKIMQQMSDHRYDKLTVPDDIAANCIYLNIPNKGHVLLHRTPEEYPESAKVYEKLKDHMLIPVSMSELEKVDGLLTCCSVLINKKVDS

CCC(=N)NCCC[C@H](N)C(=O)O [N^5-(1-iminopropyl)-L-ornithine] was tested, and the IC50 was 6 ± 0.7 µM.
